From patent US12636446B2, “Devices for evaporation and inhalation of nicotine” (Emplicure AB, priority 2016, dated 2026)
Structures can show the parent of a compound that is named as a salt. Where two headings read alike, the source gives them in different places.

Key:
[1] = Description: Calcium sulphate alpha hemihydrate (CaS) was obtained from Bo Ehrlander AB (Sweden). Clonidine hydrochloride was obtained from PCAS (Finland). Shaped silicon rubbers were used as molds for coins (diameter: 12 mm, thickness: 2 mm). The calcium sulphate was mixed with powder of Clonidine hydrochloride (0.07 g Clonidine hydrochloride/g calcium sulphate) and deionised water (Liquid/Powder ratio of 0.4 (w/w)) to form a homogenous paste, which was used to fill the rubber molds. Once the paste had been applied, the molds were set to dry for at least 12 h under ambient conditions.
The oven temperature was set to approximately 250° C.
(§1) Each coin was weighed and immersed into a beaker containing 200 ml of deionised water. […] The sample was characterized by Shimadzu LC-2030 (Germany) HPLC system with a Genesis C18 analytical column 4 μm (100×2.1 mm i.d.) with a mobile phase of acetonitrile/phosphoric acid, pH 3 (11/89). The wavelength was set to 220 nm.
The reference samples represent the amount of clonidine hydrochloride mg/g calcium sulphate that was loaded before heat treatment.

[2] = calcium sulphate coins, solution 50 μl, 5 mg/ml dispensed; oven approximately 250° C., 0 to 15 minutes
Procedure: Calcium sulphate alpha hemihydrate (CaS) was obtained from Bo Ehrlander AB (Sweden). Clonidine hydrochloride was obtained from PCAS (Finland). Shaped silicon rubbers were used as molds for coins (diameter: 12 mm, thickness: 2 mm). The calcium sulphate was mixed with deionised water (Liquid/Powder ratio of 0.4 (w/w)) to form a homogenous paste, which was used to fill the rubber molds. When the paste was applied, the molds were set to dry for at least 12 h under ambient conditions.
Clonidine hydrochloride solution (50 μl, 5 mg/ml) was dispensed onto the calcium sulphate coins. When the solution was applied, the coins were set to dry for at least 12 h under ambient conditions.
(§2) The temperature was set to approximately 250° C.
as §1
The reference samples represent the amount of clonidine hydrochloride that was loaded before heat treatment.

[3] = calcium sulphate rods soaked 24 hours in pure nicotine; heated 5*10 sec., maximum temperature 315° C.
Description: Aluminium oxide ceramic rods and calcium sulphate rods were obtained as described in Example 3. Nicotine and nicotine solutions were supplied and applied, and nicotine levels were detected as described in Example 3.
Samples were heated using a prototype e-cigarette device (X-Cube II, Smoke) obtained from Devex Mekatronik AB (Sweden). The device is derived from the commercially available e-cigarette X-Cube.
The sample in the device was heated up by a coil that is wrapped around the sample.
The end of the device was connected to a vial via a silicon hose. The vial contained 1 ml of deionised water. To simulate smoking a rod was put into the device and puffing was performed. Puffing involves a sequence of 5 puffs that are each 10 seconds long. After puffing, the hose was removed and flushed with the water. The water was analysed for concentration of nicotine.

[4] = calcium sulphate coins, nicotine solution 50 μl, 18 mg/ml dispensed; heated about 1 minute or about 5 minutes
Description: Calcium sulphate coins were obtained as described in Example 3. For the indirect induction test a magnet was molded into the coin. Nicotine and nicotine solutions were supplied and applied, and nicotine levels were detected as described in Example 3.
Metal plate for induction cooker was obtained from Haneström (Sweden). Induction cooker Wilfa ICP-2000 was obtained from Media Markt (Sweden). Magnets (10*1 mm, Samarium Cobalt magnets, 0.4 kg pull) were obtained from first4magnets (UK). IR-thermometer (MS6520A) was obtained from Mastech (USA).
Heat treatment by indirect induction was carried out by placing a metal plate onto the induction cooker. The ceramic coins containing a magnet was applied onto the metal plate and heated on maximum effect (exact temperature was not measured; see FIG. 10).

[5] = Liquid/Powder ratio 0.4 (w/w)
Procedure: Calcium sulphate alpha hemihydrate (CaS) was obtained from Bo Ehrlander AB (Sweden). Shaped silicon rubbers were used as molds for coins (diameter: 12 mm, thickness: 2 mm). The calcium sulphate was mixed with a nicotine solution with a concentration of 5 or 20 mg/ml of nicotine (Liquid/Powder ratio of 0.4 (w/w)) to form a homogenous paste, which was filled in the rubber molds. Once the paste was applied, the molds were set to dry for at least 12 h under ambient conditions.
The temperature was set to approximately 200° C.
The sample was characterized by UV-spectrophotometer at a wavelength of 219 nm. The amount nicotine in the samples were then calculated.

[6] = for amount of nicotine detected in the reference sample / nicotine detected in coins after heating: pure nicotine (20 mg) dispensed; for amount of nicotine detected in the reference sample: not heated
[7] = Oven heating of calcium sulphate coins pre-loaded with sumatriptan succinate; detection by UV; format: physicochemical; details: 0.07 g sumatriptan succinate/g calcium sulphate, oven approximately 250° C.
Procedure: as §2

[8] = Oven heating of Al2O3 rods soaked in sumatriptan succinate solution; detection by UV; details: Al2O3 rods soaked in 20 mg/ml solution for 24 hours
Procedure: The application of sumatriptan succinate was achieved by soaking the Al2O3 rods in a sumatriptan succinate solution with a concentration of 20 mg/ml. The volume of solution was around 100 μl but was not measured precisely; the volume was sufficient to fully immerse the rods. The samples were soaked for 24 hours in room temperature and thereafter the samples were dried for 24 hours, before heat treatment and/or analysis.
The temperature was set to approximately 300° C. […] The rods were heated in the oven for a period of time ranging from 0 to 15 minutes.
All sumatriptan release tests were carried out according to the same analytical method. The rods were immersed in a beaker containing 50 ml of deionised water. After 24 hours a sample of the water was taken out and filtered (pore size: 0.2 μm). The sample was characterized by UV-spectrophotometry at a wavelength of 282 nm. The amount sumatriptan succinate in the samples was then calculated. The reference samples represent the amount of sumatriptan succinate that was loaded before heat treatment. The difference between the amount of sumatriptan succinate detected in the heat-treated samples and the reference sample represents the amount of sumatriptan succinate that evaporated during the heat treatment.

[9] = calcium sulphate rods soaked in pure nicotine, oven approximately 200° C.

In the case of `Clc1cccc(Cl)c1N=C1NCCN1` [clonidine hydrochloride], the “amount of clonidine hydrochloride contained in coin” value ([1]; calcium sulphate coins pre-loaded, 0.07 g clonidine hydrochloride/g calcium sulphate, coin approximately 0.3 g) is reported as “approximately 17 mg”, the “time within which almost all of the clonidine hydrochloride was released when heated” value ([1]; pre-loaded calcium sulphate coins, oven approximately 250° C.) is reported as ≤ 15 min and the “amount of clonidine hydrochloride present in the coins during heating” value [2] is reported as “decreased significantly”.
With `CN1CCCC1c1cccnc1` (stereo not drawn) [nicotine] the “nicotine release on heat treatment in e-cigarette device” value [3] was “a heat treatment in the device will result in a nicotine release”, the “nicotine release on induction heating, unheated plate” value [4] was “Most of the nicotine was released within the first minute” and the “amount of nicotine contained in coin” value ([5]; calcium sulphate coins mixed with 5 mg/ml nicotine solution) was “approximately 180 μg”. For the same compound, the “amount of nicotine contained in coin” value ([5]; calcium sulphate coins mixed with 20 mg/ml nicotine solution) was ~390 µg, the “time within which almost all of the nicotine was released when heated” value ([6]; aluminium oxide rods soaked in 6 mg/ml nicotine solution (diluted e-juice) 24 hours, oven approximately 200° C.) was 5 to 10 min and the “amount of nicotine absorbed by rod” value ([6]; aluminium oxide rods soaked in 6 mg/ml nicotine solution for 24 hours) was “approximately 135 μg nicotine/rod”. The “amount of nicotine detected in the reference sample” value ([6]; calcium sulphate coins) was “lower than 20 mg”, the “nicotine detected in coins after heating” value ([6]; calcium sulphate coins, oven approximately 200° C.) was “lower release of nicotine was detected after heating” and the “amount of nicotine absorbed by rod” value ([6]; calcium sulphate rods soaked in pure nicotine for 24 hours) was “approximately 20 mg nicotine/rod”. The “nicotine release during heating” value [6, 9] was “Most of the nicotine was released”, the “nicotine release, 5 min of heating compared to 1 min of heating” value [6, 9] was “a higher amount was released during 5 min of heating compared to 1 min of heating” and the “amount of nicotine detected in the reference sample” value ([6]; geopolymer coins) was “about 16 mg”. The “nicotine detected in coins after heating” value ([6]; geopolymer coins, oven approximately 200° C.) was “lower release of nicotine was detected after heating”.
For `CNS(=O)(=O)Cc1ccc2[nH]cc(CCN(C)C)c2c1` [sumatriptan succinate], the “time within which almost all of the Sumatriptan succinate was released when heated” value [7] was ≤ 15 min and the “amount of sumatriptan succinate absorbed by rod” value [8] was “approximately 1 mg sumatriptan succinate/rod”.
